Data taken from patent US12685746B2, “Cyclodextrin derivatives in the treatment or prevention of lysosomal neurodegenerative diseases” (CYCLOLAB CYCLODEXTRIN RESEARCH AND DEVELOPMENT LABORATORY …, priority 2020, dated 2026).
Entries after “also recorded” stand apart in the source; their conditions may differ.

What was measured:
[1] = tested on: zebrafish model for Niemann Pick type C1 (U18666A administration); assay: Filipin staining of five day old zebrafish larvae pretreated with U18666A (cholesterol accumulation in the brain); type: in vivo, Danio rerio; conditions: for Reduction in U18666A induced cholesterol accumulation in the brain: result in words; for Heavy staining (number of larvae) / Light staining (number of larvae) / No staining (number of larvae): U18666A pretreated 5 dpf larvae; for No staining (number of larvae): fluorescence in head region; for Different from placebo: X2-test vs U18666A-placebo
Procedure: Several cyclodextrin derivatives were evaluated in a zebrafish model for Niemann Pick type C1 (U18666A administration). Cholesterol accumulation in the brain was quantified by filipin staining of Danio rerio Casper (albino strain) larvae. Results were compared with the reference compound Hydroxypropyl-β-cyclodextrin (HPBCD).
In this study the best performing Cyclodextrins were as follows: Heptakis(2,6-di-O-methyl)-beta cyclodextrin, Octakis(2,3,6-tri-O-methyl)-gamma cyclodextrin, Sualfadex sodium, Subetadex sodium Sugammadex sodium. Filipin staining of five day old zebrafish larvae (Danio rerio, Casper strain) pretreated with U18666A were studied.
Fertilized eggs were hatched and kept in an incubator at 28° C.
CDs were administered from Stock solutions (0.1%) in standard E3 medium. Preparation of E3 medium was as follows:
The stock solutions were diluted with E3. Compounds were administered in the swimming water. Each concentration was tested in 25 larvae.
Experimental compounds were tested at a 0.05% concentration. As reference Hydroxypropyl-β-cyclodextrin (Sigma) was tested at a 0.5% concentration.
Treated 5 dpf Casper larvae were fixed for 30 minutes in 4% paraformaldehyde. After washing (2 times) with PBS, they were stained for 30 minutes with 50 μg/mL filipin (Sigma) in PBS solution. Then larvae were washed (with PBS) twice.
Whole larvae were embedded and images were captured on a Dino-Lite Digital USB microscope for GFP/FITC recordings (AM4115T4). Images were evaluated by an independent assessor, unaware of the treatments. The assessor scored the fluorescence in the head region as none, light or heavy.
Data were analysed by means of X2-tests. All conditions were compared to the U18666A—placebo treatment group.
Fluorescence was measured as an index for the amount of filipin staining. The higher the filipin staining the more cholesterol accumulation there is in the brain. Individual larvae were scored (by a blinded assessor) as either heavy coloured, light coloured or not coloured at all.

[2] = literature studies; cited from earlier work
[3] = Phase solubility study: interaction of cyclodextrins with unesterified cholesterol; type: physicochemical; conditions: 24 hours equilibration at 25±3° C.
Procedure: Phase solubility studies were performed in 5 ml solutions at room temperature, wherein cyclodextrin solutions of discrete concentrations were weighed and excess amount of cholesterol was added. After 24 hours equilibration time at 25±3° C. (using magnetic stirrer at 500 RPM), the dissolved equilibrium cholesterol concentrations were determined by HPLC after filtration through a syringe filter having polyethylene sulfone membrane of 0.45 micron nominal pore size. The experimentally determined cholesterol concentrations in the presence of different concentrations of HPBCD, Sualfadex sodium, Subetadex sodium and Sugammadex sodium are listed in Table 3.

[4] = tested on: 5 dpf Danio rerio larvae treated with U18666A; assay: Mobility testing of U18666A-treated zebrafish larvae (DanioVision, distance moved); type: in vivo; conditions: U18666A 1 microg/ml 16 hours, then CD 24 hours (0.5-5%); result in words, values only in FIG. 1
Procedure: Danio rerio larvae (strain AB, Casper) 5 days post fertilization (dpf) at day of testing were treated with U18666A dissolved in standard E3 medium. Reversal of U18666A (1 microg/ml) effects on overall activity of 5 dpf Danio rerio larvae by different CDs at different concentrations (0.5-5%) were tested. Larvae were pretreated with U18666A for 16 hours and thereafter treated with CD for 24 hours. Statistical analyses were performed for the individual experiments with two way ANOVA's followed by Tukey post hoc tests (** p<0.01). CDs were dissolved in standard E3 medium.
DanioVision Observation Chamber which is a complete system, designed for the high-throughput testing of zebrafish larvae in 48-wells plates. It includes an observation chamber and renowned EthoVision XT video tracking software to quantify distance moved by the animals. The results are graphically represented (distance moved—in arbritrary unit) in FIG. 1.

[5] = dose tested 0.5% in swimming water
[6] = dose tested 0.05% in swimming water

| Dissolved cholesterol concentration ([3]; CD concentration 5 w/w %) [mg/mL] | Dissolved cholesterol concentration ([3]; CD concentration 10 w/w %) [mg/mL] | Dissolved cholesterol concentration ([3]; CD concentration 15 w/w %) [mg/mL] | Compound | Reduction in U18666A induced cholesterol accumulation in the brain ([1]; 0.5%) | Heavy staining (number of larvae) [1, 5] | Light staining (number of larvae) [1, 5] | No staining (number of larvae) [1, 5] | Different from placebo ([1]; dose tested 0.5%) | Ototoxicity [2] | Reduction in U18666A induced cholesterol accumulation in the brain ([1]; 0.05%) | Heavy staining (number of larvae) [1, 6] | Light staining (number of larvae) [1, 6] | No staining (number of larvae) [1, 6] | Reduction in U18666A induced cholesterol accumulation in the brain ([1]; 0.05%, sodium salt) | Different from placebo ([1]; dose tested 0.05%) | Motoric activity of the test animals [4] |
| --- | --- | --- | --- | --- | --- | --- | --- | --- | --- | --- | --- | --- | --- | --- | --- | --- |
| 0.28 | 0.98 | 2.06 | CC(O)COC[C@H]1O[C@@H]2O[C@H]3[C@H](O)[C@@H](O)[C@@H](O[C@H]4[C@H](O)[C@@H](O)[C@@H](O[C@H]5[C@H](O)[C@@H](O)[C@@H](O[C@H]6[C@H](O)[C@@H](O)[C@@H](O[C@H]7[C@H](O)[C@@H](O)[C@@H](O[C@H]8[C@H](O)[C@@H](O)[C@@H](O[C@H]1[C@H](O)[C@H]2O)O[C@@H]8COCC(C)O)O[C@@H]7COCC(C)O)O[C@@H]6COCC(C)O)O[C@@H]5COCC(C)O)O[C@@H]4COCC(C)O)O[C@@H]3COCC(C)O (stereo partly drawn) [HPBCD, Hydroxypropyl-β-cyclodextrin] | significantly reduced | 9 | 13 | 2 | * (* p<0.05) | ototoxic |  |  |  |  |  |  |  |
|  |  |  | COC[C@H]1O[C@@H]2O[C@H]3[C@H](O)[C@@H](OC)[C@@H](O[C@H]4[C@H](O)[C@@H](OC)[C@@H](O[C@H]5[C@H](O)[C@@H](OC)[C@@H](O[C@H]6[C@H](O)[C@@H](OC)[C@@H](O[C@H]7[C@H](O)[C@@H](OC)[C@@H](O[C@H]8[C@H](O)[C@@H](OC)[C@@H](O[C@H]1[C@H](O)[C@H]2OC)O[C@@H]8COC)O[C@@H]7COC)O[C@@H]6COC)O[C@@H]5COC)O[C@@H]4COC)O[C@@H]3COC [Heptakis(2,6-di-O-methyl)-beta cyclodextrin] |  |  |  |  |  |  | only a small, non-significant, reduction | 13 | 9 | 1 |  |  |  |
| 0.056 | 0.062 | 0.150 | O=C([O-])CCSC[C@H]1O[C@@H]2O[C@H]3[C@H](O)[C@@H](O)[C@@H](O[C@H]4[C@H](O)[C@@H](O)[C@@H](O[C@H]5[C@H](O)[C@@H](O)[C@@H](O[C@H]6[C@H](O)[C@@H](O)[C@@H](O[C@H]7[C@H](O)[C@@H](O)[C@@H](O[C@H]8[C@H](O)[C@@H](O)[C@@H](O[C@H]9[C@H](O)C(O)[C@@H](O[C@H]1[C@H](O)[C@H]2O)O[C@@H]9CSCCC(=O)[O-])O[C@@H]8CSCCC(=O)[O-])O[C@@H]7CSCCC(=O)[O-])O[C@@H]6CSCCC(=O)[O-])O[C@@H]5CSCCC(=O)[O-])O[C@@H]4CSCCC(=O)[O-])O[C@@H]3CSCCC(=O)[O-].[Na+].[Na+].[Na+].[Na+].[Na+].[Na+].[Na+].[Na+] (stereo partly drawn) [Sugammadex sodium, 6A,6B,6C,6D,6E,7F,6G,6H-Octakis-S-(2-carboxyethyl)-6A,6B,6C,6D,6E,6F,6G,6H-octathio-gamma-cyclodextrin sodium salt] |  |  |  |  |  |  |  | 4 | 15 | 5 | significant cholesterol-accumulation hindering activity; also recorded: very strong reduction | *** (*** p<0.001) | improved motoric activity |
|  |  |  | COC[C@H]1O[C@H]2O[C@H]3[C@H](OC)[C@@H](OC)[C@H](O[C@H]4[C@H](OC)[C@@H](OC)[C@H](O[C@H]5[C@H](OC)[C@@H](OC)[C@H](O[C@H]6[C@H](OC)[C@@H](OC)[C@H](O[C@H]7[C@H](OC)[C@@H](OC)[C@H](O[C@H]8[C@H](OC)[C@@H](OC)[C@H](O[C@H]9[C@H](OC)[C@@H](OC)[C@H](O[C@H]1[C@H](OC)[C@H]2OC)O[C@@H]9COC)O[C@@H]8COC)O[C@@H]7COC)O[C@@H]6COC)O[C@@H]5COC)O[C@@H]4COC)O[C@@H]3COC [Octakis(2,3,6-tri-O-methyl)-gamma cyclodextrin] |  |  |  |  |  |  | only a small, non-significant, reduction | 13 | 11 | 0 |  |  |  |
| 0.016 | 0.028 | 0.051 | O=C([O-])CCSC[C@H]1O[C@@H]2O[C@H]3[C@H](O)[C@@H](O)[C@@H](O[C@H]4[C@H](O)[C@@H](O)[C@@H](O[C@H]5[C@H](O)[C@@H](O)[C@@H](O[C@H]6[C@H](O)[C@@H](O)[C@@H](O[C@H]7[C@H](O)[C@@H](O)[C@@H](O[C@H]1[C@H](O)[C@H]2O)O[C@@H]7CSCCC(=O)[O-])O[C@@H]6CSCCC(=O)[O-])O[C@@H]5CSCCC(=O)[O-])O[C@@H]4CSCCC(=O)[O-])O[C@@H]3CSCCC(=O)[O-].[Na+].[Na+].[Na+].[Na+].[Na+].[Na+] [Sualfadex sodium, 6A,6B,6C,6D,6E,7F-Hexakis-S-(2-carboxyethyl)-6A,6B,6C,6D,6E,6F-hexathio-alpha-cyclodextrin sodium] |  |  |  |  |  |  | significant cholesterol-accumulation hindering activity; also recorded: very strong reduction | 4 | 16 | 4 |  | *** (*** p<0.001) | improved motoric activity |
| 0.062 | 0.092 | 0.246 | 6A,6B,6C,6D,6E,7F,6G-Heptakis-S-(2-carboxyethyl)-6A,6B,6C,6D,6E,6F,6G-heptathio-beta-cyclodextrin sodium salt [Subetadex sodium] |  |  |  |  |  |  |  | 5 | 15 | 4 | significant cholesterol-accumulation hindering activity; also recorded: very strong reduction | *** (*** p<0.001) | improved motoric activity |
